Test results: patent EP4545091A1 (priority 2023, dated 2025)
Where a name gives a salt, the structure may show the parent alone. Bridges are numbered along the chain shown (N, C = ends).

What was measured:
[1] = test system: SARS-CoV-2 BA.5; type: cell-based
[2] = test system: SARS-CoV spike; conditions: 48 h
[3] = test system: SARS-CoV-2 Omicron BA.5; type: cell-based
[4] = test system: Influenza A virus (IAV) H1N1; conditions: virus (IAV, 48 h)
[5] = test system: VSV-G glycoprotein; type: cell-based
[6] = test system: hCoV-NL63; conditions: 48 h
[7] = test system: MERS-CoV spike; conditions: 48 h
[8] = test system: SARS-CoV-2 Wuhan Hu-1 strain; conditions: 48 h
[9] = test system: SARS-CoV-2 Wuhan Hu-1 spike; assay: microbe, parasite or virus in culture; type: cell-based; conditions: Severe acute respiratory syndrome coronavirus 2, Caco-2, 48 h, read-out: IC50, SARS-CoV-2 spike-driven entry

Molecule	reduction of cumulative RNA copy production [1]	replication (RNA copies/ml in supernatants) [1]	IC50 [2]	viral titers two days post infection [3]	IC50 [4]	entry of VSV-G bearing control pseudoparticles [5]	IC50 [6]	IC50 [7]	IC50 [8]	IC50 [9]
VAACNLPIVRGPCRAFIQLWAFDAVKGKCVLFPYGGCQGNGNKFYSEKECREYCGVPGDGD (disulfide 4-54, 13-37, 29-50) [Trypstatin]	> 99.9%	almost entirely prevented replication	31 nM	strongly reduced viral titers	222 nM	did not affect entry	190 nM	78 nM	26 nM	
CN(C)C(=O)COC(=O)Cc1ccc(OC(=O)c2ccc(NC(=N)N)cc2)cc1 [Camostat mesylate]										70 nM
